According to PubChem BioAssay AID504934 (The Scripps Research Institute Molecular Screening Center, 2011):
Activity calls are given as the source filed them. The rule behind the calls is not given here.

What was measured:
Assay in all cases: PubChem AID 504934
[1] = biological target: Bile acid receptor (Homo sapiens) (UniProt Q96RI1); settings: nuclear receptor panel Gal4 luciferase reporter, FXR, at 10 µM
ERRb = settings: nuclear receptor panel Gal4 luciferase reporter, at 10 µM
[2] = biological target: Estrogen receptor (Homo sapiens) (UniProt P03372); settings: nuclear receptor panel Gal4 luciferase reporter, ESR1 (ESRA; Era), at 10 µM
[3] = biological target: Estrogen receptor beta (Homo sapiens) (UniProt Q92731); settings: nuclear receptor panel Gal4 luciferase reporter, Erb (ESR2), at 10 µM
GCNR = settings: nuclear receptor panel Gal4 luciferase reporter, at 10 µM
[4] = biological target: Glucocorticoid receptor (Homo sapiens) (UniProt P04150); settings: nuclear receptor panel Gal4 luciferase reporter, GCCR, at 10 µM
MR = settings: nuclear receptor panel Gal4 luciferase reporter, at 10 µM
[5] = biological target: Nuclear receptor ROR-alpha (Homo sapiens) (UniProt P35398); settings: nuclear receptor panel Gal4 luciferase reporter, RORa, at 10 µM
[6] = biological target: Nuclear receptor subfamily 0 group B member 1 (Homo sapiens) (UniProt P51843); settings: nuclear receptor panel Gal4 luciferase reporter, DAX, at 10 µM
Nur77 = settings: nuclear receptor panel Gal4 luciferase reporter, at 10 µM
Nurr1 = settings: nuclear receptor panel Gal4 luciferase reporter, at 10 µM
PNR = settings: nuclear receptor panel Gal4 luciferase reporter, at 10 µM
RARb = settings: nuclear receptor panel Gal4 luciferase reporter, at 10 µM
RARg = settings: nuclear receptor panel Gal4 luciferase reporter, at 10 µM
RORb = settings: nuclear receptor panel Gal4 luciferase reporter, at 10 µM
RXRg = settings: nuclear receptor panel Gal4 luciferase reporter, at 10 µM
[7] = biological target: Retinoic acid receptor RXR-alpha (Homo sapiens) (UniProt P19793); settings: nuclear receptor panel Gal4 luciferase reporter, RXRa, at 10 µM
Rev-erb a = settings: nuclear receptor panel Gal4 luciferase reporter, at 10 µM
SHP = settings: nuclear receptor panel Gal4 luciferase reporter, at 10 µM
THRa = settings: nuclear receptor panel Gal4 luciferase reporter, at 10 µM
TR2 = settings: nuclear receptor panel Gal4 luciferase reporter, at 10 µM
TR4 = settings: nuclear receptor panel Gal4 luciferase reporter, at 10 µM
VDR = settings: nuclear receptor panel Gal4 luciferase reporter, at 10 µM
VP16 Control Plasmid = settings: nuclear receptor panel Gal4 luciferase reporter, at 10 µM

Glucocorticoid receptor (Homo sapiens), sequence (P04150 whole entry, looked up, the tested form may be a part): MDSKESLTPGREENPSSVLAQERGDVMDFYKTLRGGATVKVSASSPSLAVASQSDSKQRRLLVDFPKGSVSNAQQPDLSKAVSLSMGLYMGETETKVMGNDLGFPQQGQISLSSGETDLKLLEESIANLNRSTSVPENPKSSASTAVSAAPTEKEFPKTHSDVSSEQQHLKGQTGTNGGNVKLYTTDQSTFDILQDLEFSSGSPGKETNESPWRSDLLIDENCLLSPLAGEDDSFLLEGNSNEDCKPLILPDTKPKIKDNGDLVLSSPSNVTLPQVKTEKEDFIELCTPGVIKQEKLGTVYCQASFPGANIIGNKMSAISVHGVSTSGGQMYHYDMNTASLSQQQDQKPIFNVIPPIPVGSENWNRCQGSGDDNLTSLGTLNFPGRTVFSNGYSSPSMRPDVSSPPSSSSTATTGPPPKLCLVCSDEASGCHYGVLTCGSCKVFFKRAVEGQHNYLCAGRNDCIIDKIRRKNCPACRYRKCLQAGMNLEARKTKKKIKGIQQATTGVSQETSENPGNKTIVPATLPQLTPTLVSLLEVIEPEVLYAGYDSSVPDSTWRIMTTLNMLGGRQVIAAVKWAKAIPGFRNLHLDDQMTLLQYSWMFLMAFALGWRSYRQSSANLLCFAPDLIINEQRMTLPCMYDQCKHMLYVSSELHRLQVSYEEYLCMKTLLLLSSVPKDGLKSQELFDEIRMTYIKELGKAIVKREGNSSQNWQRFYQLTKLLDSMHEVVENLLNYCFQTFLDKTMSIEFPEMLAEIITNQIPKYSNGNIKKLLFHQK
Retinoic acid receptor RXR-alpha (Homo sapiens), sequence (P19793 whole entry, looked up, the tested form may be a part): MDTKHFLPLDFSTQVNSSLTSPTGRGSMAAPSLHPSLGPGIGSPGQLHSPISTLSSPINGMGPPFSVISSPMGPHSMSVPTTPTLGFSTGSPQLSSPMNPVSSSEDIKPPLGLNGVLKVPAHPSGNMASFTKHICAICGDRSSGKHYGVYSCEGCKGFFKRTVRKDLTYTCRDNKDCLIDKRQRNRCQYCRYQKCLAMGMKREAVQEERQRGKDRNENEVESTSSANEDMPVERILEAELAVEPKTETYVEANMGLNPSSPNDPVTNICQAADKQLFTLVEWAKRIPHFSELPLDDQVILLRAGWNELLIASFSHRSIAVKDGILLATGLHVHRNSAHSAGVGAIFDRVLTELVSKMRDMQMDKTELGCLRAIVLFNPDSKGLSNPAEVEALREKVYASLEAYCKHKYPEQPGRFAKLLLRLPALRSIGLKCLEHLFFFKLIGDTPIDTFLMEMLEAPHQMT
Estrogen receptor beta (Homo sapiens), sequence (Q92731 whole entry, looked up, the tested form may be a part): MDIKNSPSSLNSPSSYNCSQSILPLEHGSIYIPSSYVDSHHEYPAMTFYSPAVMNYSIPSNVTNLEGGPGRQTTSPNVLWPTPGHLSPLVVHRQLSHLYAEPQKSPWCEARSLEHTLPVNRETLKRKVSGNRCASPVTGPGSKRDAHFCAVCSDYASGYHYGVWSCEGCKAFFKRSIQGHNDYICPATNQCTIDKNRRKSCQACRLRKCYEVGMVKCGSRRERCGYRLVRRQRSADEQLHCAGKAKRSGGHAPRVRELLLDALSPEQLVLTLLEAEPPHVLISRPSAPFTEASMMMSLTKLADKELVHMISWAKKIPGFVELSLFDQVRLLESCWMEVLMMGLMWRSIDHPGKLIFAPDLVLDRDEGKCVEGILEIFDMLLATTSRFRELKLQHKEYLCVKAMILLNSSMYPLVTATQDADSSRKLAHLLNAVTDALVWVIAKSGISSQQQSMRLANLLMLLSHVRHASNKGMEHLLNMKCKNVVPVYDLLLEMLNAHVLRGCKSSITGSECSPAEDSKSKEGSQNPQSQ
Nuclear receptor subfamily 0 group B member 1 (Homo sapiens), sequence (P51843 whole entry, looked up, the tested form may be a part): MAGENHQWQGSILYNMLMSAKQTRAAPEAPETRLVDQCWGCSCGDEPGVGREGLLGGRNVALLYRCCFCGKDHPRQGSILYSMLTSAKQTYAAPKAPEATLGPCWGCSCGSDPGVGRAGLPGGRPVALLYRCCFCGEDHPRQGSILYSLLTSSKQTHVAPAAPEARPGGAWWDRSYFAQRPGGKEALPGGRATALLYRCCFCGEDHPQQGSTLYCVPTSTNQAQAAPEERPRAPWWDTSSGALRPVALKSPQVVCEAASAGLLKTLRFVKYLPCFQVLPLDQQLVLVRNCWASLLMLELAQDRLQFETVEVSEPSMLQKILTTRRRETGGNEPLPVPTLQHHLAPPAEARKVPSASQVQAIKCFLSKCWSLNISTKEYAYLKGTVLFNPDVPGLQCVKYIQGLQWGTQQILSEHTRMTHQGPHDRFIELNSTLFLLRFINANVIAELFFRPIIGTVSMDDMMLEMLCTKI
Estrogen receptor (Homo sapiens), sequence (P03372 whole entry, looked up, the tested form may be a part): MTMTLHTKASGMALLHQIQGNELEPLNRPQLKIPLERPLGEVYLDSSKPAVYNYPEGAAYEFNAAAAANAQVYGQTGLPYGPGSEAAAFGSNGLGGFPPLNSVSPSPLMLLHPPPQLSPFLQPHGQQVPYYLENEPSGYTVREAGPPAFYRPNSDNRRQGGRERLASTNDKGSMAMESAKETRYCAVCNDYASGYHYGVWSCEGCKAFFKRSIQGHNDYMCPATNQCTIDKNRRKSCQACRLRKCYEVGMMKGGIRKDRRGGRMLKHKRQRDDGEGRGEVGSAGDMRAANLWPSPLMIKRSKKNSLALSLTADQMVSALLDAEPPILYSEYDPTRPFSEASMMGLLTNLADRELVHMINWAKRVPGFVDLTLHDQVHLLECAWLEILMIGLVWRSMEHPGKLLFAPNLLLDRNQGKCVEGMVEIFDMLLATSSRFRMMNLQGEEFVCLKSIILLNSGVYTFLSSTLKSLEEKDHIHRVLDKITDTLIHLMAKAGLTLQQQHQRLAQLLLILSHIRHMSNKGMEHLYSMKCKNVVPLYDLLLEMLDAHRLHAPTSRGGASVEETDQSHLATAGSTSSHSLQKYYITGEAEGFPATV
Bile acid receptor (Homo sapiens), sequence (Q96RI1 whole entry, looked up, the tested form may be a part): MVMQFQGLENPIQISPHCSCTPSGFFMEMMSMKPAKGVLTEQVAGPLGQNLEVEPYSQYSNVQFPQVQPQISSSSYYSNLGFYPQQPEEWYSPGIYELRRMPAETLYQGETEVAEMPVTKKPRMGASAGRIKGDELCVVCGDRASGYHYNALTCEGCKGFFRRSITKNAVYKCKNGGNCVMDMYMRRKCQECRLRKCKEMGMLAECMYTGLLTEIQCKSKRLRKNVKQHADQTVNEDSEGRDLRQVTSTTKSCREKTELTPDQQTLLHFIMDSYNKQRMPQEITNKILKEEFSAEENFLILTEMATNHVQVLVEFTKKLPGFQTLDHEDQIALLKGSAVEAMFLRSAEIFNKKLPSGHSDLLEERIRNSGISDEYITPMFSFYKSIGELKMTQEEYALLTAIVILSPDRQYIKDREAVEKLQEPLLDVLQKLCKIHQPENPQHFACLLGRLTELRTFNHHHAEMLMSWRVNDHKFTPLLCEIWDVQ
Nuclear receptor ROR-alpha (Homo sapiens), sequence (P35398 whole entry, looked up, the tested form may be a part): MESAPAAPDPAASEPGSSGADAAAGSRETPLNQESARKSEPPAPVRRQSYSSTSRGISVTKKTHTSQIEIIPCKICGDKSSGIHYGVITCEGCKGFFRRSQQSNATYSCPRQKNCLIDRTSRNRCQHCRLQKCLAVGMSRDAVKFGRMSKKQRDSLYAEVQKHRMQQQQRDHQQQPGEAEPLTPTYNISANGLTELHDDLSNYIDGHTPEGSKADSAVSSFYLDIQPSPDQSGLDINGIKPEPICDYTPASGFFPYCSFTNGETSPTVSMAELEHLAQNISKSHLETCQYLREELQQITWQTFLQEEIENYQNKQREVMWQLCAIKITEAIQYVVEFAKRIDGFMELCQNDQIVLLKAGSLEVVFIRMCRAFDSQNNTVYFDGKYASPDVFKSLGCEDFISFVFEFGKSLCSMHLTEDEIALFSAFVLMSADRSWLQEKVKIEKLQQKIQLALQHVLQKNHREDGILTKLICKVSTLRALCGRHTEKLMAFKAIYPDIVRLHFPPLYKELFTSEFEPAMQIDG

Structure (SMILES): O=c1cc(N2CCN(c3cccc(Cl)c3)CC2)[nH]c(=O)n1C1CCCCC1
- fold change [1]: 2.52
- fold change (ERRb): 1.02 (inactive)
- fold change [2]: 0.61
- fold change [3]: 0.56
- fold change (GCNR): 1.06 (inactive)
- fold change [4]: 1.13 (inactive)
- fold change (MR): 1.41
- fold change [5]: 1 (inactive)
- fold change [6]: 1.03 (inactive)
- fold change (Nur77): 0.72
- fold change (Nurr1): 0.79
- fold change (PNR): 0.72
- fold change (RARb): 0.54
- fold change (RARg): 0.56
- fold change (RORb): 0.82 (inactive)
- fold change (RXRg): 0.81 (inactive)
- fold change [7]: 0.75
- fold change (Rev-erb a): 0.84 (inactive)
- fold change (SHP): 0.86 (inactive)
- fold change (THRa): 1.69
- fold change (TR2): 0.63
- fold change (TR4): 0.8
- fold change (VDR): 0.83 (inactive)
- fold change (VP16 Control Plasmid): 0.82 (inactive)
